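Cultured in 96-well plates, cells were exposed to test compound for 48 hours across five concentrations. GI50 = concentration required for 50% inhibition of growth.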 Active and inactive are the calls of the source. Rule as the data show it: active = GI50 up to about 1.1 µM and inactive = higher.
Columns and labels:
Assay in all cases: NCI anticancer screen, dose series, 48 h
RPMI-8226 = test system: RPMI-8226
SW-620 = test system: SW-620
MCF7 = test system: MCF7
IGROV-1 = test system: IGROV-1
OVCAR-5 = test system: OVCAR-5
SR = test system: SR
OVCAR-3 = test system: OVCAR-3
OVCAR-4 = test system: OVCAR-4
ACHN = test system: ACHN
MOLT-4 = test system: MOLT-4
SK-MEL-2 = test system: SK-MEL-2
CAKI-1 = test system: CAKI-1
SF-295 = test system: SF-295
NCI-H23 = test system: NCI-H23
OVCAR-8 = test system: OVCAR-8
HCT-15 = test system: HCT-15
K562 = test system: K562
RXF 393 = test system: RXF 393
HCC 2998 = test system: HCC 2998
CCRF-CEM = test system: CCRF-CEM

Row | SMILES | GI50 (RPMI-8226) | GI50 (SW-620) | GI50 (MCF7) | GI50 (IGROV-1) | GI50 (OVCAR-5) | GI50 (SR) | GI50 (OVCAR-3) | GI50 (OVCAR-4) | GI50 (ACHN) | GI50 (MOLT-4) | GI50 (SK-MEL-2) | GI50 (CAKI-1) | GI50 (SF-295) | GI50 (NCI-H23) | GI50 (OVCAR-8) | GI50 (HCT-15) | GI50 (K562) | GI50 (RXF 393) | GI50 (HCC 2998) | GI50 (CCRF-CEM)
1 | C=CCN1CCN([C@H](c2ccc(C(=O)N(CC)CC)cc2)c2cccc(OC)c2)CC1 | > 25 µM (inactive) | > 25 µM (inactive) | > 25 µM (inactive) | > 25 µM (inactive) | > 25 µM (inactive) | > 25 µM (inactive) | > 25 µM (inactive) | > 25 µM (inactive) | > 25 µM (inactive) | > 25 µM (inactive) | > 25 µM (inactive) | > 25 µM (inactive) | > 25 µM (inactive) | > 25 µM (inactive) | > 25 µM (inactive) | > 25 µM |  |  |  | 
2 | CC(=O)OCC12C(OC(C)=O)C[C@@H](C)C3(CC(c4ccoc4)OC3=O)C1CCC(OC(C)=O)C21CO1 (some centres undefined) | > 100 µM (inactive) | > 100 µM (inactive) | > 100 µM (inactive) | > 100 µM (inactive) | > 100 µM (inactive) |  | > 100 µM (inactive) | > 100 µM (inactive) | > 100 µM (inactive) | > 100 µM (inactive) | > 100 µM (inactive) | > 100 µM (inactive) | > 100 µM (inactive) | > 100 µM (inactive) | > 100 µM (inactive) | > 100 µM | > 100 µM (inactive) | > 100 µM (inactive) | > 100 µM (inactive) | > 100 µM (inactive)
3 | O=C(c1cc(O)ccc1O)c1ccccc1C(Cl)(Cl)Cl | 47.5 µM (inactive) | > 100 µM (inactive) |  | > 100 µM (inactive) | > 100 µM (inactive) | 71.8 µM (inactive) | 79.1 µM (inactive) | 68.5 µM (inactive) | > 100 µM (inactive) | 33 µM (inactive) | > 100 µM (inactive) | 93.1 µM (inactive) | 55.7 µM (inactive) | 58.2 µM (inactive) | 80.9 µM (inactive) | > 100 µM | 61.8 µM (inactive) | > 100 µM (inactive) | > 100 µM (inactive) | 61.5 µM (inactive)
4 | CCc1cccc(CC)c1NC(=O)C(=O)Cc1nc2ccccc2o1 | > 100 µM (inactive) | > 100 µM (inactive) |  | > 100 µM (inactive) | > 100 µM (inactive) | > 100 µM (inactive) | > 100 µM (inactive) | > 100 µM (inactive) | > 100 µM (inactive) | > 100 µM (inactive) | > 100 µM (inactive) | > 100 µM (inactive) | > 100 µM (inactive) | > 100 µM (inactive) | > 100 µM (inactive) | > 100 µM | > 100 µM (inactive) | > 100 µM (inactive) | > 100 µM (inactive) | > 100 µM (inactive)
5 | CN1[C@@H]2CCCC[C@H]2N(C)P1(=O)C(O)/C=C/c1ccccc1 (some centres undefined) | > 100 µM (inactive) | > 100 µM (inactive) | > 100 µM (inactive) | > 100 µM (inactive) | > 100 µM (inactive) |  | > 100 µM (inactive) | > 100 µM (inactive) | > 100 µM (inactive) | > 100 µM (inactive) | > 100 µM (inactive) | > 100 µM (inactive) | > 100 µM (inactive) | > 100 µM (inactive) | > 100 µM (inactive) | > 100 µM | > 100 µM (inactive) | > 100 µM (inactive) | > 100 µM (inactive) | > 100 µM (inactive)
6 | COC(=O)C1=C(C)NC2(C)OC(C)(O)C(C(C)=O)C12C(C)=O (centres undefined) | 61.1 µM (inactive) | > 100 µM (inactive) | > 100 µM (inactive) | > 100 µM (inactive) | 31.5 µM (inactive) |  | > 100 µM (inactive) | > 100 µM (inactive) | 70.6 µM (inactive) | > 100 µM (inactive) | 21.4 µM (inactive) | > 100 µM (inactive) | 32.1 µM (inactive) | > 100 µM (inactive) | > 100 µM (inactive) | > 100 µM | > 100 µM (inactive) | 57.7 µM (inactive) |  | 31.6 µM (inactive)
7 | CCN(CC)C1=Nc2ccccc2-n2c(C)cnc2C1 | 95.5 µM (inactive) | > 100 µM (inactive) | > 100 µM (inactive) | > 100 µM (inactive) | > 100 µM (inactive) |  | > 100 µM (inactive) | > 100 µM (inactive) | > 100 µM (inactive) | > 100 µM (inactive) | > 100 µM (inactive) | > 100 µM (inactive) | > 100 µM (inactive) | > 100 µM (inactive) | > 100 µM (inactive) | > 100 µM | > 100 µM (inactive) | > 100 µM (inactive) | > 100 µM (inactive) | > 100 µM (inactive)
8 | CC(=O)O/C(=C(/C#N)C(=O)O)C1C(C(=O)O)C(c2ccccc2[N+](=O)[O-])C=C(c2ccco2)N1c1ccncc1 (centres undefined) | 1.68 µM (inactive) | 1.85 µM (inactive) | 1.03 µM (active) | 1.12 µM (inactive) | 7.89 µM (inactive) |  | 2.94 µM (inactive) | 14.3 µM (inactive) | 2.17 µM (inactive) | 2.54 µM (inactive) | 9.25 µM (inactive) | 4.3 µM (inactive) | 7.67 µM (inactive) | 5.45 µM (inactive) | 5.02 µM (inactive) | 1.71 µM | 2.31 µM (inactive) |  | 4.97 µM (inactive) | 2.43 µM (inactive)
9 | COc1ccc(C2C3=C(COC3=O)Oc3cc4c(cc32)OCO4)cc1OC (centres undefined) | 0.447 µM (active) | 0.492 µM (active) | 0.408 µM (active) | 0.713 µM (active) | 8.97 µM (inactive) |  | 1.38 µM (inactive) | 37.9 µM (inactive) | 1.82 µM (inactive) | 0.466 µM (active) | 0.679 µM (active) | 2.82 µM (inactive) | 0.716 µM (active) | 3.94 µM (inactive) | 4.05 µM (inactive) | 0.397 µM | 0.337 µM (active) | 0.891 µM (active) | 0.614 µM (active) | 0.428 µM (active)
10 | C/C(=N\NC(N)=S)c1cccs1.OB(O)c1ccccc1 | > 100 µM (inactive) | > 100 µM (inactive) | > 100 µM (inactive) | > 100 µM (inactive) | > 100 µM (inactive) | > 100 µM (inactive) | > 100 µM (inactive) | > 100 µM (inactive) | > 100 µM (inactive) | > 100 µM (inactive) |  |  | > 100 µM (inactive) | > 100 µM (inactive) | > 100 µM (inactive) | > 100 µM | > 100 µM (inactive) |  | > 100 µM (inactive) | > 100 µM (inactive)
11 | O=C1CNC(=O)/C(=C/c2c[nH]c3ccccc23)N1 | > 100 µM (inactive) | > 100 µM (inactive) | > 100 µM (inactive) | > 100 µM (inactive) | > 100 µM (inactive) |  | > 100 µM (inactive) | > 100 µM (inactive) | > 100 µM (inactive) | > 100 µM (inactive) | > 100 µM (inactive) | > 100 µM (inactive) | > 100 µM (inactive) | > 100 µM (inactive) | > 100 µM (inactive) | > 100 µM | > 100 µM (inactive) | > 100 µM (inactive) | > 100 µM (inactive) | 
12 | O=C1/C(=C/c2ccc(Cl)cc2)NC(=S)N1CN1CCCCC1 | 20 µM (inactive) | 20.7 µM (inactive) | 29.2 µM (inactive) | 33.8 µM (inactive) | 37.5 µM (inactive) | 34.8 µM (inactive) | 36.7 µM (inactive) |  | 24.6 µM (inactive) | 30.2 µM (inactive) | 73.1 µM (inactive) |  | 36.9 µM (inactive) | 37.2 µM (inactive) | 36.7 µM (inactive) | 22.6 µM | 34 µM (inactive) |  |  | 17.8 µM (inactive)
13 | CC(C)(C)c1ccc(Oc2ccc(C#N)c(C#N)c2)c(C(C)(C)C)c1 | 17 µM (inactive) | 49.3 µM (inactive) |  | > 89.7 µM (inactive) | > 21 µM (inactive) | 18.7 µM (inactive) | 40.1 µM (inactive) | 49.7 µM (inactive) | 34.9 µM (inactive) | 17.4 µM (inactive) | 40.6 µM (inactive) | 56.4 µM (inactive) | > 58.9 µM (inactive) | 43.6 µM (inactive) | 51.4 µM (inactive) | 14.4 µM | 21.2 µM (inactive) | 24.3 µM (inactive) | 48.9 µM (inactive) | 23.2 µM (inactive)
14 | COc1cc2c(cc1O)[C@H](Cc1ccc(Oc3cc(C[C@H]4c5cc(OC)c(OC)cc5CCN4C)ccc3OC)cc1)NCC2 | 12.9 µM (inactive) | 11.6 µM (inactive) |  | 15.2 µM (inactive) | 18 µM (inactive) | 7.5 µM (inactive) | 10.5 µM (inactive) | 12.7 µM (inactive) | 11.4 µM (inactive) | 3.25 µM (inactive) | 17 µM (inactive) | 4.08 µM (inactive) | 11.9 µM (inactive) | 11.9 µM (inactive) | 14.5 µM (inactive) | 7.98 µM | 2.21 µM (inactive) | 3.77 µM (inactive) | 6.62 µM (inactive) | 9.64 µM (inactive)
15 | COc1cccc(NC(=O)CC(=O)N2N=C(N(CCC#N)c3ccc(Cl)cc3)CC2c2ccccc2)c1 (centres undefined) | > 100 µM (inactive) | > 100 µM (inactive) |  | > 100 µM (inactive) | > 100 µM (inactive) | > 100 µM (inactive) | > 100 µM (inactive) | > 100 µM (inactive) | > 100 µM (inactive) | > 100 µM (inactive) | > 100 µM (inactive) | > 100 µM (inactive) | > 100 µM (inactive) | > 100 µM (inactive) | > 100 µM (inactive) | > 100 µM | > 100 µM (inactive) | > 100 µM (inactive) | > 100 µM (inactive) | > 100 µM (inactive)

From ChEMBL document CHEMBL1201862, “PubChem BioAssay data set” (2004)
